Data on 33 compounds can be found in patent US20120264735A1 (priority 2009, published 2012).

Structures are written as SMILES. pIC50: −log10 of the molar value. A value given as a limit tells only on which side of the number the result lay.

The target in this assay is T1, c-Met kinase (recombinant c-Met) (Homo sapiens, UniProt P08581).
T1 construct: 0.27 nM recombinant c-Met
T1 sequence (P08581 25-1390): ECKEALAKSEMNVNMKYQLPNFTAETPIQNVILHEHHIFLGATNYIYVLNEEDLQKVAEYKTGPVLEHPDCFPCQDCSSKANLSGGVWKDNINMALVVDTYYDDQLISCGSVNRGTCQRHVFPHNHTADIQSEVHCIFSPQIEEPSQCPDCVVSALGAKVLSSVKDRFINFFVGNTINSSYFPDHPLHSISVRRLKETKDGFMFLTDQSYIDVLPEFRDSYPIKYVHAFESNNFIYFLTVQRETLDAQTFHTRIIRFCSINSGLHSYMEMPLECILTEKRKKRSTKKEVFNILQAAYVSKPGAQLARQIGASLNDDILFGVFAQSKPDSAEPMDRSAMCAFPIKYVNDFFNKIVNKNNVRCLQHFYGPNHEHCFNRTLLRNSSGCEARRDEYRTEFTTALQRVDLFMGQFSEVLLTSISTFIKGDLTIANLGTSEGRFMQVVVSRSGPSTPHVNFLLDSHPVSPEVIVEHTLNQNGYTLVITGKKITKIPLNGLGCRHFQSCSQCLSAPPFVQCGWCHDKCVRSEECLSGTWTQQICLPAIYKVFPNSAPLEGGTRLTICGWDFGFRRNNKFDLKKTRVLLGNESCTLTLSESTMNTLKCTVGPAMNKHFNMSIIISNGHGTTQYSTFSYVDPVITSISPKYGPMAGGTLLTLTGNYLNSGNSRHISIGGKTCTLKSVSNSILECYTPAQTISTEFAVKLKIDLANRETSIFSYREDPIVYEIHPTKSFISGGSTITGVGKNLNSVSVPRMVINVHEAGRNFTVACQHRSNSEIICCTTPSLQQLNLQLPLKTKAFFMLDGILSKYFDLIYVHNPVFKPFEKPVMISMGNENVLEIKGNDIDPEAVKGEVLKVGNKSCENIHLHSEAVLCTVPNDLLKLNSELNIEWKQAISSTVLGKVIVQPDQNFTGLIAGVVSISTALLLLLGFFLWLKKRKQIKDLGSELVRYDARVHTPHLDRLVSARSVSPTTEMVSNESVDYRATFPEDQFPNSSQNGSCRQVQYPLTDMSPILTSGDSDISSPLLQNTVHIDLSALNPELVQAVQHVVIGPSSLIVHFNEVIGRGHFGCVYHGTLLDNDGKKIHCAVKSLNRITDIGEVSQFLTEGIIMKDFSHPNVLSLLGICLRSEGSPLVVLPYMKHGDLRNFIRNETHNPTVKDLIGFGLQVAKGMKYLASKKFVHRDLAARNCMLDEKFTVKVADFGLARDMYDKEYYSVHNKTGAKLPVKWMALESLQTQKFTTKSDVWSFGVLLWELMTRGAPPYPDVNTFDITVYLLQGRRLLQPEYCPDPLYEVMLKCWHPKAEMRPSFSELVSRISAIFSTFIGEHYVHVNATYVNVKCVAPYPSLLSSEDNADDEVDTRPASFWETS
The assay can be described thus: In vitro kinase assay I (homogeneous time-resolved fluorescence tyrosine kinase assay). The format is biochemical. The method, boiled down: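 Biotinylated peptide (0.5 μM) phosphorylated by 0.2 nM recombinant c-Met with 50 μM MgATP, 60 min at room temperature, pH 7.4, 5% DMSO. EDTA stop; HTRF read with Eu-anti-phosphotyrosine antibody and streptavidin-APC. IC50 from 4-parameter logistic fit.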
In the case of `CCOCC(O)COc1cnc(-c2cccc(Cc3nn(-c4cnn(C)c4)ccc3=O)c2)nc1` (racemic) [Example 370, rac-3-{3-[5-(3-ethoxy-2-hydroxypropoxy)pyrimidin-2-yl]benzyl}-1-(1-methyl-1H-pyrazol-4-yl)pyridazin-4(1H)-one], the pIC50 (as a rule, the negative decadic logarithm of the IC50, by convention in mol/L) is over 7.00.
Next, `CCOC(=O)Nc1cccc(C(C)c2nn(-c3ccccc3)ccc2=O)c1` (racemic) [Example 651, rac-Ethyl {3-[1-(4-oxo-1-phenyl-1,4-dihydropyridazin-3-yl)ethyl]phenyl}carbamate]: 6.00 to 7.00; `CCn1cc(-n2ccc(=O)c(C(C)c3cccc(-c4ncc(OC(C)C)cn4)c3)n2)cn1` (single isomer, unassigned) [Example 293, 1-(1-ethyl-1H-pyrazol-4-yl)-3-[(1R or S)-1-{3-[5-(1-methylethoxy)pyrimidin-2-yl]phenyl}ethyl]pyridazin-4(1H)-one]: over 7.00.
In the case of `COCc1cnc(-c2cccc(C(C)c3nn(-c4cnn(C)c4)ccc3=O)c2)nc1` (single isomer, unassigned) [Example 220, 3-((1R or S)-1-{3-[5-(methoxymethyl)pyrimidin-2-yl]phenyl}ethyl)-1-(1-methyl-1H-pyrazol-4-yl)pyridazin-4(1H)-one], the negative-log IC50 (pIC50) is over 7.00.
Next, `CCn1cc(-n2ccc(=O)c(C(C)c3cccc(-c4ncc(COC)cn4)c3)n2)cn1` (single isomer, unassigned) [Example 218, 1-(1-ethyl-1H-pyrazol-4-yl)-3-((1R or S)-1-{3-[5-(methoxymethyl)pyrimidin-2-yl]phenyl}ethyl)pyridazin-4(1H)-one]: over 7.00.
Next, `Cn1cc(-n2ccc(=O)c(Cc3cccc4[nH]ncc34)n2)cn1` [Example 50, 3-(1H-indazol-4-ylmethyl)-1-(1-methyl-1H-pyrazol-4-yl)pyridazin-4(1H)-one]: 5.52 to 6.00; `CC(c1cccc(-c2ncc(-c3cnn(C)c3)cn2)c1)c1nn(-c2ccc(F)c(F)c2)ccc1=O` (single isomer, unassigned) [Example 238, 1-(3,4-difluorophenyl)-3-[(1S or R)-1-{3-[5-(1-methyl-1H-pyrazol-4-yl)pyrimidin-2-yl]phenyl}ethyl]pyridazin-4(1H)-one]: 6.00 to 7.00; `Cn1cc(-n2ccc(=O)c(Cc3cccc(NC(=O)OCCC4(O)CCOC(C)(C)C4)c3)n2)cn1` (racemic) [Example 612, rac-2-(4-hydroxy-2,2-dimethyl-tetrahydro-2H-pyran-4-yl)ethyl (3-{[1-(1-methyl-1H-pyrazol-4-yl)-4-oxo-1,4-dihydropyridazin-3-yl]methyl}phenyl)carbamate]: over 7.00.
Next, `Cn1cc(-n2ccc(=O)c(Cc3cccc(-c4ncc(-c5cccnc5)cn4)c3)n2)cn1` [Example 412, 1-(1-methyl-1H-pyrazol-4-yl)-3-[3-(5-pyridin-3-ylpyrimidin-2-yl)benzyl]pyridazin-4(1H)-one]: over 7.00; `Cn1cc(-n2ccc(=O)c(Cc3cccc(NC(=O)OCC(F)(F)F)c3)n2)cn1` [Example 544, 2,2,2-trifluoroethyl (3-{[1-(1-methyl-1H-pyrazol-4-yl)-4-oxo-1,4-dihydropyridazin-3-yl]methyl}phenyl)carbamate]: over 7.00; `CC(C)COC(=O)Nc1cccc(Cc2nn(-c3cnn(CCCC(=O)N(C)C)c3)ccc2=O)c1` [Example 696, 2-Methylpropyl {3-[(1-{1-[4-(dimethylamino)-4-oxobutyl]-1H-pyrazol-4-yl}-4-oxo-1,4-dihydropyridazin-3-yl)methyl]phenyl}carbamate]: over 7.00.
For `N#Cc1cccc(-n2ccc(=O)c(Cc3cccc(NC(=O)OCC4COCCO4)c3)n2)c1` (racemic) [Example 601, rac-1,4-dioxan-2-ylmethyl (3-{[1-(3-cyanophenyl)-4-oxo-1,4-dihydropyridazin-3-yl]methyl}phenyl)carbamate], the pIC50 was over 7.00.
The same measure for `CC(c1cccc(-c2ncc(C3CC3)cn2)c1)c1nn(-c2cnn(C)c2)ccc1=O` (single isomer, unassigned) [Example 405, 3-{(1S or R)-1-[3-(5-cyclopropyl-pyrimidin-2-yl)phenyl]ethyl}-1-(1-methyl-1H-pyrazol-4-yl)pyridazin-4(1H)-one]: over 7.00; for `CC(c1cccc(-c2ncc(Br)cn2)c1)c1nn(-c2cnn(C)c2)ccc1=O` (single isomer, unassigned) [Example 242, 3-{(1R or S)-1-[3-(5-bromopyrimidin-2-yl)phenyl]ethyl}-1-(1-methyl-1H-pyrazol-4-yl)pyridazin-4(1H)-one]: over 7.00.
Next, `Cn1cc(-n2ccc(=O)c(Cc3cccc(-c4ncc(OCCN5CCOCC5)cn4)c3)n2)cn1` [Example 263, 1-(1-methyl-1H-pyrazol-4-yl)-3-{3-[5-(2-morpholin-4-ylethoxy)pyrimidin-2-yl]benzyl}pyridazin-4(1H)-one]: over 7.00.
The same measure for `O=C(Nc1cccc(Cc2nn(-c3cc(F)c(F)c(F)c3)ccc2=O)c1)OCCCN1CCCC1=O` [Example 551, 3-(2-oxopyrrolidin-1-yl)propyl (3-{[4-oxo-1-(3,4,5-trifluorophenyl)-1,4-dihydropyridazin-3-yl]methyl}phenyl)carbamate]: over 7.00; for `CN1CCN(CCCOC(=O)Nc2cccc(Cc3nn(-c4cnn(C)c4)ccc3=O)c2)CC1` [Example 536, 3-(4-methylpiperazin-1-yl)propyl-(3-{[1-(1-methyl-1H-pyrazol-4-yl)-4-oxo-1,4-dihydropyridazin-3-yl]methyl}phenyl)carbamate]: over 7.00.
For `CCC(C)COC(=O)Nc1cccc(Cc2nn(-c3cnn(C)c3)ccc2=O)c1` (racemic) [Example 573, rac-2-methylbutyl (3-{[1-(1-methyl-1H-pyrazol-4-yl)-4-oxo-1,4-dihydropyridazin-3-yl]methyl}phenyl)carbamate], the pIC50 was over 7.00.
For the compound `Cn1cc(-n2ccc(=O)c(Cc3cccc(-c4ncc(O[C@H]5CC[C@@H](O)CC5)cn4)c3)n2)cn1` [Example 748, 3-(3-{5-[(cis-4-hydroxycyclohexyl)oxy]pyrimidin-2-yl}benzyl)-1-(1-methyl-1H-pyrazol-4-yl)pyridazin-4(1H)-one], the pIC50 was over 7.00.
The same measure for `Cn1cc(-n2ccc(=O)c(Cc3ccc4nn(C)cc4c3)n2)cn1` [Example 49, 3-[(2-methyl-2H-indazol-5-yl)methyl]-1-(1-methyl-1H-pyrazol-4-yl)pyridazin-4(1H)-one]: 5.52 to 6.00.
Next, `CC(C)CCn1cnc(-c2cccc(Cc3nn(-c4cnn(C)c4)ccc3=O)c2)n1` [Example 78, 3-{3-[1-(3-methylbutyl)-1H-1,2,4-triazol-3-yl]benzyl}-1-(1-methyl-1H-pyrazol-4-yl)pyridazin-4(1H)-one]: over 7.00.
Next, `COCCOc1cnc(-c2cccc(Cc3nn(-c4cc(F)cc(F)c4)ccc3=O)c2)nc1` [Example 149, 1-(3,5-difluorophenyl)-3-{3-[5-(2-methoxyethoxy)pyrimidin-2-yl]benzyl}pyridazin-4(1H)-one]: over 7.00; `Cn1cc(-n2ccc(=O)c(Cc3cccc(NC(=O)OCCO)c3)n2)cn1` [Example 630, 2-Hydroxyethyl(3-{[1-(1-methyl-1H-pyrazol-4-yl)-4-oxo-1,4-dihydropyridazin-3-yl]methyl}phenyl)carbamate]: over 7.00.
On to `CC(c1cccc(-c2ncc(OC(C)C(C)(C)O)cn2)c1)c1nn(-c2cnn(C)c2)ccc1=O` (single isomer, unassigned) [Example 384, 3-{(1R or S)-1-[3-(5-{[(1R or S)-2-hydroxy-1,2-dimethylpropyl]oxy}pyrimidin-2-yl)phenyl]ethyl}-1-(1-methyl-1H-pyrazol-4-yl)pyridazin-4(1H)-one], for which the pIC50 was over 7.00.
Next, `CCOC(=O)Nc1cccc(Cc2nn(-c3cncc(F)c3)ccc2=O)c1` [Example 34, ethyl (3-{[1-(5-fluoropyridin-3-yl)-4-oxo-1,4-dihydropyridazin-3-yl]methyl}phenyl)carbamate]: over 7.00.
The same measure for `Cc1nc(-c2cccc(Cc3nn(-c4cnn(C)c4)ccc3=O)c2)no1` [Example 42, 3-[3-(5-methyl-1,2,4-oxadiazol-3-yl)benzyl]-1-(1-methyl-1H-pyrazol-4-yl)pyridazin-4(1H)-one]: 6.00 to 7.00; for `Cc1cnc(-c2cccc(Cc3nn(-c4cnn(C)c4)ccc3=O)c2)s1` [Example 19, 1-(1-methyl-1H-pyrazol-4-yl)-3-[3-(5-methyl-1,3-thiazol-2-yl)benzyl]pyridazin-4(1H)-one]: over 7.00.
The same measure for `Cn1cc(-n2ccc(=O)c(Cc3cccc(-c4ncc(O[C@@H]5CCC[C@H]5O)cn4)c3)n2)cn1` (single isomer, unassigned) [Example 378]: over 7.00; for `O=c1ccn(-c2ccc(F)c(F)c2)nc1Cc1cccc(-c2ncc(OCc3ccccc3)cn2)c1` [Example 124, 3-{3-[5-(benzyloxy)pyrimidin-2-yl]benzyl}-1-(3,4-difluorophenyl)pyridazin-4(1H)-one]: over 7.00.
Take `O=c1ccn(-c2cc(F)cc(F)c2)nc1Cc1cccc(-c2ncc(OC3COC3)cn2)c1` [Example 330]: the pIC50 was over 7.00.
The same measure for `CCOc1cnc(-c2cccc(C(C)c3nn(-c4cnn(CC)c4)ccc3=O)c2)nc1` (single isomer, unassigned) [Example 245, 3-{(1S or R)-1-[3-(5-ethoxypyrimidin-2-yl)phenyl]ethyl}-1-(1-ethyl-1H-pyrazol-4-yl)pyridazin-4(1H)-one]: 6.00 to 7.00; for `CCOCCOc1cnc(-c2cccc(Cc3nn(-c4ccc(F)c(F)c4)ccc3=O)c2)nc1` [Example 321, 1-(3,4-difluorophenyl)-3-{3-[5-(2-ethoxyethoxy)pyrimidin-2-yl]benzyl}pyridazin-4(1H)-one]: over 7.00; for `Cn1cc(-n2ccc(=O)c(Cc3ccc4ncc(OCC5CCOC5)cc4c3)n2)cn1` (racemic) [Example 64, rac-1-(1-methyl-1H-pyrazol-4-yl)-3-{[3-(tetrahydrofuran-3-ylmethoxy)quinolin-6-yl]methyl}pyridazin-4(1H)-one]: over 7.00.
